Reference: ChEMBL document CHEMBL3627657, “Design, synthesis, biological evaluation and docking study of 4-isochromanone hybrids bearing N-benzyl pyridinium moiety as dual binding site acetylcholinesterase inhibitors” (Bioorg Med Chem Lett, 2015)
The source made the active and inactive calls. No cut-off for these calls is given here.

Columns and labels:
Cholinesterase = Cholinesterase (Equus caballus, UniProt P81908)
Description: Inhibition of equine serum BuChE using thiocholine iodide as substrate by Ellman's method

[1] = Selectivity index, ratio of IC50 for equine serum BuChE to IC50 for electric eel AChE
Acetylcholinesterase = Acetylcholinesterase (Electrophorus electricus, UniProt O42275); experiment: Inhibition of electric eel AChE using […] as substrate by Ellman's method
[2] = Lipophilicity, log P of the compound by UV-metric/potentiometric method; assay type: physicochemical; conditions: octanol/water
[3] = Dissociation constant, pKa of the compound by UV-metric/potentiometric method; assay type: physicochemical
[4] = Lipophilicity, log D of the compound at pH 7.4 by UV-metric/potentiometric method; assay type: physicochemical; conditions: buffer
[5] = target: Acetylcholinesterase (Electrophorus electricus) (UniProt O42275); experiment: Mixed type inhibition of electric eel AChE using […] as substrate by Lineweaver-Burk plot analysis
Chain of Acetylcholinesterase (Electrophorus electricus) (O42275 24-633 limits assumed): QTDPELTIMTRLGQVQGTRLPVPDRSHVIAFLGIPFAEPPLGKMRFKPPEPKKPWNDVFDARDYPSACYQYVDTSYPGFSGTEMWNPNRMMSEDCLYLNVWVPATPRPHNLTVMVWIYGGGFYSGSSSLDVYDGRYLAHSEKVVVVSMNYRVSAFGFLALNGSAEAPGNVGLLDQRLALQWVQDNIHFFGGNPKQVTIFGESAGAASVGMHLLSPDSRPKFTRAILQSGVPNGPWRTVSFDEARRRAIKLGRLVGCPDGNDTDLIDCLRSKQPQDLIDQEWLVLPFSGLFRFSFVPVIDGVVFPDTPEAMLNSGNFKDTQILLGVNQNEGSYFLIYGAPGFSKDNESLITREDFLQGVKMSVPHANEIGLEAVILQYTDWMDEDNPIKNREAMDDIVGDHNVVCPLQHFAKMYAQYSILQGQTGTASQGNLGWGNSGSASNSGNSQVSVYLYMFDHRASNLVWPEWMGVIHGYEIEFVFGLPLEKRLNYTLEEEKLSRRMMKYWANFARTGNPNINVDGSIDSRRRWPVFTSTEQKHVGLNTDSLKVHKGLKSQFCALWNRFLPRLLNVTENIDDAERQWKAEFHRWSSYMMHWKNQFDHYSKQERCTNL

Chain of Acetylcholinesterase (O42275 whole entry): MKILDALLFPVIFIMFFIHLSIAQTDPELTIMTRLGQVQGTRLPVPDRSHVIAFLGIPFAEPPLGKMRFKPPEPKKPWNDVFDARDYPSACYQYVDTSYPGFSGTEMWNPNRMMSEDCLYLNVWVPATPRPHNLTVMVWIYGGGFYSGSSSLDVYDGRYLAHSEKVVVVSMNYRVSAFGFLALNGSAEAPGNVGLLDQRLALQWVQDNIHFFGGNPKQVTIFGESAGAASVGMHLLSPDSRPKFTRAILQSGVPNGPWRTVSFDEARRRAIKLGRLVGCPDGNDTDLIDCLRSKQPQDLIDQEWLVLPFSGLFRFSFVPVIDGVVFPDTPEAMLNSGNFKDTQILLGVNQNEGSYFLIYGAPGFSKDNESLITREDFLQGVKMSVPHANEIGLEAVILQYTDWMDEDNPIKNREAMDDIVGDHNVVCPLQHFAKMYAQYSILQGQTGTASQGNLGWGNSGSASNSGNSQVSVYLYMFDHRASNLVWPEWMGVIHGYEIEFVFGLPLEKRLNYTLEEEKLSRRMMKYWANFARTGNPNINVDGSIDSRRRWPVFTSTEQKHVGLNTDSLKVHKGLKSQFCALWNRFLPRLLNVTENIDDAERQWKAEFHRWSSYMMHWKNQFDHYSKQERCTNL
Chain of Cholinesterase (P81908 whole entry): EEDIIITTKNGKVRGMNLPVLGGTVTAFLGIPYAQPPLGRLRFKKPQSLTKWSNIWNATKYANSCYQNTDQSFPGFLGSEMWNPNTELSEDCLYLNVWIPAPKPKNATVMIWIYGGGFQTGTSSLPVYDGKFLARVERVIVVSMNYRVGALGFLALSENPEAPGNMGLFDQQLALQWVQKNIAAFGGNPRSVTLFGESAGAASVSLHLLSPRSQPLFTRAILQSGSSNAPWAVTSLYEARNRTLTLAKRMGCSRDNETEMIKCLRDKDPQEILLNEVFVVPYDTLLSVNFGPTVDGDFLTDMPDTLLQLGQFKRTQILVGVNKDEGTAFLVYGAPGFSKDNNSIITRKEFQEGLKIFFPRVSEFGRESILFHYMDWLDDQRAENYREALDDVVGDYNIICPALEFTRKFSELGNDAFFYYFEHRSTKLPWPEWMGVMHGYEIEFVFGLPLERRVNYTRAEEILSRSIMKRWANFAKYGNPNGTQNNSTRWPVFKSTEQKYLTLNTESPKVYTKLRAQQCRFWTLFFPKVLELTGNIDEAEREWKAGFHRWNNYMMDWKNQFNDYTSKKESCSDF

| Compound | IC50 (Cholinesterase) [nM] | Ratio IC50 [1] | IC50 (Acetylcholinesterase) [nM] | logP [2] | pKa [3] | logD [4] | inhibition [5] |
| --- | --- | --- | --- | --- | --- | --- | --- |
| COc1ccc2c(c1OC)CO/C(=C\c1cc[n+](Cc3ccc(Cl)cc3)cc1)C2=O | 3560 | 5.5 | 646 | – | – | – | – |
| COc1ccc2c(c1OC)CO/C(=C\c1cc[n+](Cc3cccc(F)c3)cc1)C2=O | 9440 | 359 | 26.3 | – | – | – | – |
| COc1ccc2c(c1OC)CO/C(=C\c1cc[n+](Cc3ccccc3F)cc1)C2=O | 4410 | 209 | 21.1 | – | – | – | – |
| COc1ccc2c(c1OC)CO/C(=C\c1cc[n+](Cc3ccccc3)cc1)C2=O | 6870 | 153 | 44.8 | 2.53 | 8.68 | 1.28 | – |
| COc1ccc2c(c1OC)CO/C(=C\c1cc[n+](Cc3cccc(Cl)c3)cc1)C2=O | 9920 | 142 | 69.7 | – | – | – | – |
| COc1ccccc1C[n+]1ccc(/C=C2\OCc3c(ccc(OC)c3OC)C2=O)cc1 | 8790 | 13 | 640 | – | – | – | – |
| COc1ccc2c(c1OC)CO/C(=C\c1cc[n+](Cc3cccc([N+](=O)[O-])c3)cc1)C2=O | 29200 | 64 | 456 | – | – | – | – |
| COc1ccc2c(c1OC)CO/C(=C\c1cc[n+](Cc3ccc(F)cc3)cc1)C2=O | 2070 | 232 | 8.93 | 2.84 | 8.79 | 1.45 | Active |
| COc1ccc2c(c1OC)CO/C(=C\c1cc[n+](Cc3ccccc3Cl)cc1)C2=O | 3640 | 229 | 15.9 | 3.2 | 8.62 | 1.96 | – |
| COc1ccc2c(c1OC)CO/C(=C\c1cc[n+](Cc3ccccc3[N+](=O)[O-])cc1)C2=O | 20900 | 41.6 | 503 | – | – | – | – |
| COc1ccc(C[n+]2ccc(/C=C3\OCc4c(ccc(OC)c4OC)C3=O)cc2)cc1 | 4330 | 3.6 | 1190 | – | – | – | – |
| COc1ccc2c(c1OC)CO/C(=C\c1cc[n+](Cc3ccc([N+](=O)[O-])cc3)cc1)C2=O | > 100000 | – | 3550 | – | – | – | – |
| COc1cccc(C[n+]2ccc(/C=C3\OCc4c(ccc(OC)c4OC)C3=O)cc2)c1 | 3060 | 7 | 441 | – | – | – | – |
